The data set has as its system C57BL/6 mice. Put plainly: In vivo toxicity in C57BL/6 mice (body weight, serum cytokines, liver and kidney function, H&E). More on the design: species or system mouse. The settings on record: for Body weight: C57BL/6 mice, 6 days, MTOB 400 and 800, NSC95397 2 and 4, C646 5 and 10, A-485 40 and 80, TPCA1 10 and 20, BOT64 30 and 60 mg/kg. How it is done: Whole blood samples were allowed to stand undisturbed at room temperature for 15 min before being centrifuged at 1,000 × g for 10 min. The supernatant serum and BALF were used to measure concentrations of IL-1β, IL-6, IL-15, IL-18, and TNF-α with specific enzyme-linked immunosorbent assay (ELISA) kits as per manufacturer guidelines. The ELISA kits used were: IL-1β (Thermo Fisher; #KMC0011), IL-6 (Thermo Fisher; #KMC0061), IL-15 (Abcam; Shanghai, China; #ab275898), IL-18 (Thermo Fisher; #BMS618-3), and TNF-α (Thermo Fisher; #BMS607-3). Total BALF protein levels were measured using the BCA Protein Assay Kit (Abcam; #ab102536) according to the manufacturer’s protocol.
Serum activities or levels of alanine aminotransferase (ALT), aspartate aminotransferase (AST), alkaline phosphatase (ALP), blood urea nitrogen (BUN), and creatinine were measured using commercially available assay kits, including the ALT Activity Assay Kit (Abcam; #ab105134), AST Activity Assay Kit (Abcam; #ab105135), ALP Assay Kit (Abcam; #ab83369), BUN Colorimetric Detection Kit (Thermo Fisher; #EIABUN), and Creatinine Assay Kit (Abcam; #ab65340). All experimental procedures were conducted according to the respective manufacturer’s protocols.
Lung, heart, liver, and kidney tissues were collected from various groups of mice, including ARDS, ARDS + MTOB, ARDS + NSC95397, ARDS + C646, ARDS + A-485, ARDS + TPCA1, ARDS + BOT64, and ARDS + PNSC928. The tissues were fixed in 10% neutral-buffered formalin (Sigma-Aldrich; #HT501128) for 48 h, then dehydrated through a graded ethanol series (70%, 80%, 90%, and 100%, for 30 min each). The dehydrated tissues were embedded in paraffin blocks and allowed to solidify. The paraffin blocks were sectioned at 5 μm, with the sections floated on a water bath to remove wrinkles before being transferred onto glass slides. The slides were dried, dewaxed with xylene, and rehydrated through a reverse ethanol series (100%, 90%, 80%, and 70%, for 30 min each), followed by a final rinse in distilled water. The rehydrated sections were stained using the Hematoxylin and Eosin Kit (Abcam; #ab245880) according to the manufacturer’s guidelines. After staining, the sections were dehydrated through a graded ethanol series (70%, 80%, 90%, and 100%, for 30 min each), then cleared with xylene. The sections were mounted with a mounting medium (Abcam; #ab64230) and imaged using a Nikon light microscope for tissue morphology.
C57BL/6 mice were administrated with MTOB (400 and 800 mg/kg), NSC95397 (2 and 4 mg/kg), C646 (5 and 10 mg/kg), A-485 (40 and 80 mg/kg), TPCA1 (10 and 20 mg/kg), BOT64 (30 and 60 mg/kg) for a duration of 6 days (n = 10 for each group). (A-F) Body weights were measured every two days. (G-K) Serum concentrations of different groups of mice. (G) IL-1β, (H) IL-6, (I) IL-15, (J) IL-18, and (K) TNF-α. *P < 0.05
C57BL/6 mice were administrated with MTOB (400 and 800 mg/kg), NSC95397 (2 and 4 mg/kg), C646 (5 and 10 mg/kg), A-485 (40 and 80 mg/kg), TPCA1 (10 and 20 mg/kg), and BOT64 (30 and 60 mg/kg) for a duration of 6 days (n=10 for each group). (A) Serum concentration of IFN-γ in different groups of mice. (B) Serum BUN concentration. (C) Activities of ALT, AST, and ALP in serum. (D) Serum creatinine concentration. (E) Representative H&E staining images of lung, liver, kidney, and heart from the following groups of mice: Control, MTOB (800 mg/kg), NSC95397 (4 mg/kg), C646 (10 mg/kg), A-485 (80 mg/kg), TPCA1 (20 mg/kg), and BOT64 (60 mg/kg). Bars=100 μm. For the significant difference analysis in B-D, all drug-treated groups were compared with the Control group of mice. *P<0.05; **P<0.01; ***P<0.001.
[…] (A) Serum ALT activity. (B) Serum AST activity. (C) Serum ALP activity. (D) Serum BUN concentration. (E) Serum creatinine concentration. (F) Body weights were recorded every two days. (G) Representative H&E staining images of lung, liver, kidney, and heart. Bars=100 μm.

Where [1] appears, read: PNSC928 0, 5, 10, and 20 mg/kg at two-day intervals for 6 days.

Structures are written as SMILES.

`CNC(=O)Nc1ccc2c(c1)CC[C@@]21OC(=O)N(CC(=O)N(Cc2ccc(F)cc2)[C@@H](C)C(F)(F)F)C1=O` [A-485]: the Body weight result is reported as “significant decrease in body weight”.
Turning to `CC1(C)CC(=O)c2sc(=Nc3ccccc3)oc2C1` [BOT64], the Body weight result was “significant decrease in body weight”.
Regarding `CC1=NN(c2ccc(C(=O)O)cc2)C(=O)/C1=C\c1ccc(-c2cc(C)c(C)cc2[N+](=O)[O-])o1` [C646], the Body weight entry was “significant decrease in body weight”.
On to `CSCCC(=O)C(=O)O` [MTOB], for which the Body weight entry was “significant decrease in body weight”.
In the case of `O=C1C(SCCO)=C(SCCO)C(=O)c2ccccc21` [NSC95397], the Body weight result is listed as “significant decrease in body weight”.
Consider `CC(=CCCC1=CCC(C2COC(=O)C2)OC1O)CCC1=C(C)CCCC1(C)C` (stereo not shown) [PNSC928], for which, under setting [1], the “Activities and levels of ALT, AST, ALP, BUN, and creatinine” value is recorded as “no discernible alterations”; the “Histological examination of lung, heart, liver, and kidney” value was “no conspicuous damage”; the Mouse body weights entry was “did not affect mouse body weights”. The “Behavioral activities (feeding, balance ability, sleeping patterns)” value (PNSC928 0, 5, 10, and 20 mg/kg at two-day intervals for 6 days, data not shown) is “did not affect”.
As to `NC(=O)Nc1sc(-c2ccc(F)cc2)cc1C(N)=O` [TPCA1], the Body weight entry is reported as “significant decrease in body weight”.
